Here are results for two molecules from paper PMC3439991 (Thrombosis, 2012).

Data set [1] in a line: Cumulative urine excretion of argatroban, by ecarin clotting time (ECT). It is filed as in vivo. Particulars: pigs, s.c., similar for both formulations. On the procedure:
The blood samples were drawn into plastic tubes containing 3.13% sodium citrate before dosing and at definite time intervals thereafter. Then, blood samples were centrifuged (1000 g for 10 min) to obtain citrated plasma. Urine samples were also collected using a bladder catheter and frozen at −20°C until further analysis.
Furthermore, antithrombin activity in plasma samples was also determined by ecarin chromogenic assay (ECA).

The conditions of data set [2]: cited from earlier work.
The conditions of data set [3]: pig, in vivo, sc. An excerpt: Furthermore, systemic effects as bleeding were investigated by examination of all major tissues and organs.
For data set [4] the following is noted: cited from earlier work. The source holds these as a separate data set.
The mark [5] stands for this setting: after subcutaneous administration.

Where two headings read alike, the source gives them in different places.

As for `CC1CNc2c(cccc2S(=O)(=O)N[C@@H](CCCNC(=N)N)C(=O)N2CC[C@@H](C)C[C@@H]2C(=O)O)C1` (stereo partly drawn) [Argatroban], the “administered antithrombotic active amount recovered in urine (cumulative)” value in data set [1] is listed as 15–20%. Also, the solubility in water entry in data set [2] is on record as “about 1 mg·mL^−1”. The “Local bleeding, toxic reactions, and other side effects” value in data set [3] is given as “not observed”.

As usually defined, the half-life is the time in which the quantity being followed falls by half. On to hirudin, for which, in data set [4] (administered intravenously), the half-life result is “about 60 min”. Besides, in data set [4] (setting [5]), the half-life is 2 h; the “period of stable plasma concentrations and antithrombotic activity” value is reported as “approximately 12 hours”.
